Reference: patent publication US6696407B1, “Huntington's disease treatment comprising administering aldose reductase inhibitors to increase striatal CNTF” (The Regents of the University of California, priority 1997, dated 2004)
“Also recorded” adds a separate entry of the source.

Assays:
[1] = tested on: CNTF; assay: Striatal CNTF levels by ELISA; type: in vivo, rat; conditions: adult rats, oral 50 mg/kg/day for two months
Description: CNTF protein was determined with an ELISA that utilizes a monoclonal capture antibody which recognizes a non-C-terminal epitope on both rat and human CNTF (Regeneron, Tarrytown, N.Y.). The captured CNTF was recognized by a polyclonal rabbit anti-rCNTF reporter antibody. An alkaline phosphatase-tagged goat anti-rabbit IgG was used to generate the signal. In practice, 96-well Immulon plates were coated with capture antibody overnight, then blocked and washed. After overnight incubation of standards and samples, plates were washed and reporter antibody added. Following final washes, the reaction was developed using the GIBCO BRL ELISA amplification system substrate and amplifier. The reaction was stopped with 0.5 N H2SO4 and the plates read at two wavelengths (490 nm and 650 nm).
ARIs Toirestat and Ponalrestat were orally administered to adult rats at a dose of 50 mg/kg/day for two months as described in Example 1 and in Mizisin et al (1997) Diabetes 46: 647-652. For each rat, the left and right striatum were dissected and combined for homogenization in phosphate buffered saline. CNTF levels in extract preparations were then measured by ELISA, as described in Example 1. Four rats served as controls, and five rats each received Tolrestat and Ponalrestat. Five ELISA assays were run for each rat and one mean value derived for each rat.

[2] = Dittrich et al. (1994); cited from earlier work

COc1ccc2c(C(=S)N(C)CC(=O)O)cccc2c1C(F)(F)F [Tolrestat, N-[[6-methoxy-5-(trifluoromethyl)-1-naphthalenyl]thioxomethyl]-N-methylglycine]
Increase in striatal CNTF activity level versus control group [1]: significantly increased; also recorded: approximately two-fold

B1: CNTF: member of the neuropoietic cytokine family, a protein of 200 amino acids (protein, UniProt P26441 1-200, looked up)
Ciliary neurotrophic factor: MAFTEHSPLTPHRRDLCSRSIWLARKIRSDLTALTESYVKHQGLNKNINLDSADGMPVASTDQWSELTEAERLQENLQAYRTFHVLLARLLEDQQVHFTPTEGDFHQAIHTLLLQVAAFAYQIEELMILLEYKIPRNEADGMPINVGDGGLFEKKLWGLKVLQELSQWTVRSIHDLRFISSHQTGIPARGSHYIANNKKM
Plasma half-life [2]: 2.9 min
